Patent US20080051387A1, “TETRAHYDROPYRIDO[3,4-D]PYRIMIDINES AND RELATED ANALOGUES” (priority 2006, published 2008)

biological target: T1, chimeric human H3 receptor (Homo sapiens, UniProt Q9Y5N1); assay: Chimeric human H3 receptor screening GTP binding assay (inhibition of histamine-stimulated GTP-gamma35S binding, Example 8); format: biochemical; conditions: 1 h; assay described in Example 8; symbol "!" in column headed Ki; read-out: Ki ("!": percent inhibition of agonist-induced GTP-gammaS binding to H3)
T1 construct: rat Galpha-i2 (Gnai2, rat); made in house; host or cells: Sf9 insect cells (baculovirus); P2 membranes
T1 sequence (Q9Y5N1 with tags, fused parts or gaps): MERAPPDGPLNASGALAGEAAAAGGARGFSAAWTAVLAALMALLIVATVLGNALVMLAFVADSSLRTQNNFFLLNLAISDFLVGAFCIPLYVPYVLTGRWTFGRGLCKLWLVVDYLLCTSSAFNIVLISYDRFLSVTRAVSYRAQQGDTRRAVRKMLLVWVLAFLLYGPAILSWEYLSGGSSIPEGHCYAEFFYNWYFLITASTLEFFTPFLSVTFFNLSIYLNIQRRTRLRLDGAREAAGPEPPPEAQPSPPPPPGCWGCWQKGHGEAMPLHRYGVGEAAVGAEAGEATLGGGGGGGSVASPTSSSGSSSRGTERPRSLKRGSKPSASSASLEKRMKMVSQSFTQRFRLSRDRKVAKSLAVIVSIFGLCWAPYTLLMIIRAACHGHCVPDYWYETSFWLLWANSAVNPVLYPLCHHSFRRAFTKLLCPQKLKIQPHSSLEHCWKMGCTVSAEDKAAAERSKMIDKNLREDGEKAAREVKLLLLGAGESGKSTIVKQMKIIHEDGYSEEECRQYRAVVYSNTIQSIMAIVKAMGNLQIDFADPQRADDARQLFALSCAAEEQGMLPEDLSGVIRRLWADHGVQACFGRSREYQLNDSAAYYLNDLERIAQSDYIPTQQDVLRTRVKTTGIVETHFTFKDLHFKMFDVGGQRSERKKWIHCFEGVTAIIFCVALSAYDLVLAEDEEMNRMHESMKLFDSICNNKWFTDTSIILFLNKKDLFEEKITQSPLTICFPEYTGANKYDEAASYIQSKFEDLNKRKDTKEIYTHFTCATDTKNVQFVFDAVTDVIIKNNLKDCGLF
Summary of the method: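 Sf9 membranes co-expressing chimeric human H3 receptor and heterotrimeric G-protein (35 μg protein) incubated 60 min at room temperature with 4 μM compound, 1 μM histamine and 125 pM GTP-gamma35S in pH 7.4 buffer with 10 μM GDP. Filter-bound radioactivity, nonspecific (10 μM GTP-gammaS) subtracted, reported as % inhibition of histamine signal.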

SMILES | inhibition at 4 µM
COc1cccc(/C=C/C(=O)N2CCc3cnc(N4CCN(C5CCC5)CC4)nc3CC2)c1 [Compound 564, 2-(4-cyclobutylpiperazin-1-yl)-7-[(2E)-3-(3-methoxyphenyl)prop-2-enoyl]-6,7,8,9-tetrahydro-5H-pyrimido[4,5-d]azepine] | ≥ 90%
COc1cc(/C=C/C(=O)N2CCc3cnc(N4CCN(C5CCC5)CC4)nc3CC2)cc(OC)c1 [Compound 565, 2-(4-cyclobutylpiperazin-1-yl)-7-[(2E)-3-(3,5-dimethoxyphenyl)prop-2-enoyl]-6,7,8,9-tetrahydro-5H-pyrimido[4,5-d]azepine] | ≥ 90%
COc1cc(/C=C/C(=O)N2CCc3cnc(N4CCN(C5CCC5)CC4)nc3CC2)cc(OC)c1OC [Compound 566, 2-(4-cyclobutylpiperazin-1-yl)-7-[(2E)-3-(3,4,5-trimethoxyphenyl)prop-2-enoyl]-6,7,8,9-tetrahydro-5H-pyrimido[4,5-d]azepine] | ≥ 90%
O=C(/C=C/c1ccc2c(c1)OCO2)N1CCc2cnc(N3CCN(C4CCC4)CC3)nc2CC1 [Compound 567, 7-[(2E)-3-(1,3-benzodioxol-5-yl)prop-2-enoyl]-2-(4-cyclobutylpiperazin-1-yl)-6,7,8,9-tetrahydro-5H-pyrimido[4,5-d]azepine] | ≥ 90%
COc1ccccc1/C=C/C(=O)N1CCc2cnc(N3CCN(C4CCC4)CC3)nc2CC1 [Compound 568, 2-(4-cyclobutylpiperazin-1-yl)-7-[(2E)-3-(2-methoxyphenyl)prop-2-enoyl]-6,7,8,9-tetrahydro-5H-pyrimido[4,5-d]azepine] | ≥ 90%
CCOc1ccccc1/C=C/C(=O)N1CCc2cnc(N3CCN(C4CCC4)CC3)nc2CC1 [Compound 569, 2-(4-cyclobutylpiperazin-1-yl)-7-[(2E)-3-(2-ethoxyphenyl)prop-2-enoyl]-6,7,8,9-tetrahydro-5H-pyrimido[4,5-d]azepine] | ≥ 90%
COc1ccc(/C=C/C(=O)N2CCc3cnc(N4CCN(C5CCC5)CC4)nc3CC2)c(OC)c1 [Compound 570, 2-(4-cyclobutylpiperazin-1-yl)-7-[(2E)-3-(2,4-dimethoxyphenyl)prop-2-enoyl]-6,7,8,9-tetrahydro-5H-pyrimido[4,5-d]azepine] | ≥ 90%
COc1ccc(/C=C/C(=O)N2CCc3cnc(N4CCN(C5CCC5)CC4)nc3CC2)c(OC)c1OC [Compound 571, 2-(4-cyclobutylpiperazin-1-yl)-7-[(2E)-3-(2,3,4-trimethoxyphenyl)prop-2-enoyl]-6,7,8,9-tetrahydro-5H-pyrimido[4,5-d]azepine] | ≥ 90%
Cc1ccccc1/C=C/C(=O)N1CCc2cnc(N3CCN(C4CCC4)CC3)nc2CC1 [Compound 572, 2-(4-cyclobutylpiperazin-1-yl)-7-[(2E)-3-(2-methylphenyl)prop-2-enoyl]-6,7,8,9-tetrahydro-5H-pyrimido[4,5-d]azepine] | ≥ 90%
COc1cccc(/C=C/C(=O)N2CCc3cnc(N4CCN(C5CCC5)CC4)nc3CC2)c1OC [Compound 573, 2-(4-cyclobutylpiperazin-1-yl)-7-[(2E)-3-(2,3-dimethoxyphenyl)prop-2-enoyl]-6,7,8,9-tetrahydro-5H-pyrimido[4,5-d]azepine] | ≥ 90%
COc1ccc(OC)c(/C=C/C(=O)N2CCc3cnc(N4CCN(C5CCC5)CC4)nc3CC2)c1 [Compound 574, 2-(4-cyclobutylpiperazin-1-yl)-7-[(2E)-3-(2,5-dimethoxyphenyl)prop-2-enoyl]-6,7,8,9-tetrahydro-5H-pyrimido[4,5-d]azepine] | ≥ 90%
COc1cc(OC)c(OC)cc1/C=C/C(=O)N1CCc2cnc(N3CCN(C4CCC4)CC3)nc2CC1 [Compound 575, 2-(4-cyclobutylpiperazin-1-yl)-7-[(2E)-3-(2,4,5-trimethoxyphenyl)prop-2-enoyl]-6,7,8,9-tetrahydro-5H-pyrimido[4,5-d]azepine] | ≥ 90%
COc1ccc(Br)cc1/C=C/C(=O)N1CCc2cnc(N3CCN(C4CCC4)CC3)nc2CC1 [Compound 576, 7-[(2E)-3-(5-bromo-2-methoxyphenyl)prop-2-enoyl]-2-(4-cyclobutylpiperazin-1-yl)-6,7,8,9-tetrahydro-5H-pyrimido[4,5-d]azepine] | ≥ 90%
Cc1ccc(C)c(/C=C/C(=O)N2CCc3cnc(N4CCN(C5CCC5)CC4)nc3CC2)c1 [Compound 577, 2-(4-cyclobutylpiperazin-1-yl)-7-[(2E)-3-(2,5-dimethylphenyl)prop-2-enoyl]-6,7,8,9-tetrahydro-5H-pyrimido[4,5-d]azepine] | ≥ 90%
O=C(/C=C/c1cccc2ccccc12)N1CCc2cnc(N3CCN(C4CCC4)CC3)nc2CC1 [Compound 578, 2-(4-cyclobutylpiperazin-1-yl)-7-[(2E)-3-(1-naphthyl)prop-2-enoyl]-6,7,8,9-tetrahydro-5H-pyrimido[4,5-d]azepine] | ≥ 90%
O=C(/C=C/c1ccccc1Cl)N1CCc2cnc(N3CCN(C4CCC4)CC3)nc2CC1 [Compound 579, 7-[(2E)-3-(2-chlorophenyl)prop-2-enoyl]-2-(4-cyclobutylpiperazin-1-yl)-6,7,8,9-tetrahydro-5H-pyrimido[4,5-d]azepine] | ≥ 90%
O=C(/C=C/c1ccccc1C(F)(F)F)N1CCc2cnc(N3CCN(C4CCC4)CC3)nc2CC1 [Compound 580, 2-(4-cyclobutylpiperazin-1-yl)-7-[(2E)-3-[2-(trifluoromethyl)phenyl]prop-2-enoyl]-6,7,8,9-tetrahydro-5H-pyrimido[4,5-d]azepine] | ≥ 90%

same assay, conditions: 1 h; assay of Example 8; symbol "!" in column headed Ki; read-out: percent inhibition of agonist-induced GTP-gammaS binding to H3

SMILES | inhibition at 4 µM
O=C(/C=C/c1ccc(Cl)cc1Cl)N1CCc2cnc(N3CCN(C4CCC4)CC3)nc2CC1 [Compound 581, 2-(4-cyclobutylpiperazin-1-yl)-7-[(2E)-3-(2,4-dichlorophenyl)prop-2-enoyl]-6,7,8,9-tetrahydro-5H-pyrimido[4,5-d]azepine] | ≥ 90%
O=C(/C=C/c1ccccc1Br)N1CCc2cnc(N3CCN(C4CCC4)CC3)nc2CC1 [Compound 582, 7-[(2E)-3-(2-bromophenyl)prop-2-enoyl]-2-(4-cyclobutylpiperazin-1-yl)-6,7,8,9-tetrahydro-5H-pyrimido[4,5-d]azepine] | ≥ 90%
O=C(/C=C/c1c(Cl)cccc1Cl)N1CCc2cnc(N3CCN(C4CCC4)CC3)nc2CC1 [Compound 583, 2-(4-cyclobutylpiperazin-1-yl)-7-[(2E)-3-(2,6-dichlorophenyl)prop-2-enoyl]-6,7,8,9-tetrahydro-5H-pyrimido[4,5-d]azepine] | ≥ 90%
O=C(/C=C/c1ccc(F)cc1Cl)N1CCc2cnc(N3CCN(C4CCC4)CC3)nc2CC1 [Compound 584, 7-[(2E)-3-(2-chloro-4-fluorophenyl)prop-2-enoyl]-2-(4-cyclobutylpiperazin-1-yl)-6,7,8,9-tetrahydro-5H-pyrimido[4,5-d]azepine] | ≥ 90%
O=C(/C=C/c1c(F)cccc1Cl)N1CCc2cnc(N3CCN(C4CCC4)CC3)nc2CC1 [Compound 585, 7-[(2E)-3-(2-chloro-6-fluorophenyl)prop-2-enoyl]-2-(4-cyclobutylpiperazin-1-yl)-6,7,8,9-tetrahydro-5H-pyrimido[4,5-d]azepine] | ≥ 90%
COc1ccc(/C=C/C(=O)N2CCc3cnc(N4CCN(C5CCC5)CC4)nc3CC2)c(Cl)c1OC [Compound 586, 7-[(2E)-3-(2-chloro-3,4-dimethoxyphenyl)prop-2-enoyl]-2-(4-cyclobutylpiperazin-1-yl)-6,7,8,9-tetrahydro-5H-pyrimido[4,5-d]azepine] | ≥ 90%
CCOc1ccc(Br)cc1/C=C/C(=O)N1CCc2cnc(N3CCN(C4CCC4)CC3)nc2CC1 [Compound 587, 7-[(2E)-3-(5-bromo-2-ethoxyphenyl)prop-2-enoyl]-2-(4-cyclobutylpiperazin-1-yl)-6,7,8,9-tetrahydro-5H-pyrimido[4,5-d]azepine] | ≥ 90%
COc1cc(Br)c(/C=C/C(=O)N2CCc3cnc(N4CCN(C5CCC5)CC4)nc3CC2)cc1OC [Compound 588, 7-[(2E)-3-(2-bromo-4,5-dimethoxyphenyl)prop-2-enoyl]-2-(4-cyclobutylpiperazin-1-yl)-6,7,8,9-tetrahydro-5H-pyrimido[4,5-d]azepine] | ≥ 90%
O=C(/C=C/c1cc2c(cc1Br)OCO2)N1CCc2cnc(N3CCN(C4CCC4)CC3)nc2CC1 [Compound 589, 7-[(2E)-3-(6-bromo-1,3-benzodioxol-5-yl)prop-2-enoyl]-2-(4-cyclobutylpiperazin-1-yl)-6,7,8,9-tetrahydro-5H-pyrimido[4,5-d]azepine] | ≥ 90%

same assay, conditions: symbol ! in Ki; test compound 4 μM, 1 μM histamine; read-out: percent inhibition of agonist-induced GTP-gammaS binding to H3

SMILES | inhibition at 4 µM
Fc1ccccc1CN1CCc2nc(N3CCN(C4CCC4)CC3)ncc2C1 [Compound 611, 2-(4-cyclobutylpiperazin-1-yl)-6-(2-fluorobenzyl)-5,6,7,8-tetrahydropyrido[4,3-d]pyrimidine] | ≥ 90%
Fc1cccc(CN2CCc3nc(N4CCN(C5CCC5)CC4)ncc3C2)c1 [Compound 612, 2-(4-cyclobutylpiperazin-1-yl)-6-(3-fluorobenzyl)-5,6,7,8-tetrahydropyrido[4,3-d]pyrimidine] | ≥ 90%
Fc1ccc(CN2CCc3nc(N4CCN(C5CCC5)CC4)ncc3C2)cc1 [Compound 613, 2-(4-cyclobutylpiperazin-1-yl)-6-(4-fluorobenzyl)-5,6,7,8-tetrahydropyrido[4,3-d]pyrimidine] | ≥ 90%
Cc1cccc(CN2CCc3nc(N4CCN(C5CCC5)CC4)ncc3C2)c1 [Compound 614, 2-(4-cyclobutylpiperazin-1-yl)-6-(3-methylbenzyl)-5,6,7,8-tetrahydropyrido[4,3-d]pyrimidine] | ≥ 90%
